Results taken from patent publication US12618095B2, “Medium for Bacillus cereus group detection” (SHIMADZU DIAGNOSTICS CORPORATION, priority 2020, dated 2026).

System: C. albicans
Assay: Test Example 9: concentration of amphotericin B

Measured: Number of colonies

C[C@@H]1[C@H](O)[C@@H](C)/C=C/C=C/C=C/C=C/C=C/C=C/C=C/[C@H](O[C@@H]2O[C@H](C)[C@@H](O)[C@H](N)[C@@H]2O)C[C@@H]2O[C@](O)(C[C@@H](O)C[C@@H](O)[C@H](O)CC[C@@H](O)C[C@@H](O)CC(=O)O[C@H]1C)C[C@H](O)[C@H]2C(=O)O [Amphotericin B]
−: ATCC10231, Amphotericin B 0.1 mg, 24 hours, 10^2 cfu/mL | ATCC10231, Amphotericin B 0.1 mg, 24 hours, 10^3 cfu/mL | ATCC10231, Amphotericin B 0.1 mg, 24 hours, 10^4 cfu/mL | ATCC10231, Amphotericin B 0.1 mg, 24 hours, 10^5 cfu/mL | ATCC10231, Amphotericin B 0.1 mg, 44 hours, 10^2 cfu/mL | ATCC10231, Amphotericin B 0.1 mg, 44 hours, 10^3 cfu/mL | ATCC10231, Amphotericin B 0.1 mg, 44 hours, 10^4 cfu/mL | ATCC10231, Amphotericin B 1.0 mg, 24 hours, 10^2 cfu/mL | ATCC10231, Amphotericin B 1.0 mg, 24 hours, 10^3 cfu/mL | ATCC10231, Amphotericin B 1.0 mg, 24 hours, 10^4 cfu/mL | ATCC10231, Amphotericin B 1.0 mg, 24 hours, 10^5 cfu/mL | ATCC10231, Amphotericin B 1.0 mg, 44 hours, 10^2 cfu/mL | ATCC10231, Amphotericin B 1.0 mg, 44 hours, 10^3 cfu/mL | ATCC10231, Amphotericin B 1.0 mg, 44 hours, 10^4 cfu/mL | ATCC10231, Amphotericin B 1.0 mg, 44 hours, 10^5 cfu/mL | ATCC10231, Amphotericin B 10 mg, 24 hours, 10^2 cfu/mL | ATCC10231, Amphotericin B 10 mg, 24 hours, 10^3 cfu/mL | ATCC10231, Amphotericin B 10 mg, 24 hours, 10^4 cfu/mL | ATCC10231, Amphotericin B 10 mg, 24 hours, 10^5 cfu/mL | ATCC10231, Amphotericin B 10 mg, 44 hours, 10^2 cfu/mL | ATCC10231, Amphotericin B 10 mg, 44 hours, 10^3 cfu/mL | ATCC10231, Amphotericin B 10 mg, 44 hours, 10^4 cfu/mL | ATCC10231, Amphotericin B 10 mg, 44 hours, 10^5 cfu/mL | ATCC14053, Amphotericin B 0.1 mg, 24 hours, 10^2 cfu/mL | ATCC14053, Amphotericin B 0.1 mg, 24 hours, 10^3 cfu/mL | ATCC14053, Amphotericin B 0.1 mg, 24 hours, 10^4 cfu/mL | ATCC14053, Amphotericin B 0.1 mg, 24 hours, 10^5 cfu/mL | ATCC14053, Amphotericin B 0.1 mg, 44 hours, 10^2 cfu/mL | ATCC14053, Amphotericin B 0.1 mg, 44 hours, 10^3 cfu/mL | ATCC14053, Amphotericin B 0.1 mg, 44 hours, 10^4 cfu/mL | ATCC14053, Amphotericin B 1.0 mg, 24 hours, 10^2 cfu/mL | ATCC14053, Amphotericin B 1.0 mg, 24 hours, 10^3 cfu/mL | ATCC14053, Amphotericin B 1.0 mg, 24 hours, 10^4 cfu/mL | ATCC14053, Amphotericin B 1.0 mg, 24 hours, 10^5 cfu/mL | ATCC14053, Amphotericin B 1.0 mg, 44 hours, 10^2 cfu/mL | ATCC14053, Amphotericin B 1.0 mg, 44 hours, 10^3 cfu/mL | ATCC14053, Amphotericin B 1.0 mg, 44 hours, 10^4 cfu/mL | ATCC14053, Amphotericin B 1.0 mg, 44 hours, 10^5 cfu/mL | ATCC14053, Amphotericin B 10 mg, 24 hours, 10^2 cfu/mL | ATCC14053, Amphotericin B 10 mg, 24 hours, 10^3 cfu/mL | ATCC14053, Amphotericin B 10 mg, 24 hours, 10^4 cfu/mL | ATCC14053, Amphotericin B 10 mg, 24 hours, 10^5 cfu/mL | ATCC14053, Amphotericin B 10 mg, 44 hours, 10^2 cfu/mL | ATCC14053, Amphotericin B 10 mg, 44 hours, 10^3 cfu/mL | ATCC14053, Amphotericin B 10 mg, 44 hours, 10^4 cfu/mL | ATCC14053, Amphotericin B 10 mg, 44 hours, 10^5 cfu/mL
